Measurements taken from ChEMBL document CHEMBL5108078, “Design and Synthesis of Phenyl Sulfide-Based Cationic Amphiphiles as Membrane-Targeting Antimicrobial Agents against Gram-Positive Pathogens” (J Med Chem, 2022).
Converted amounts (≈) assume the structure as drawn.

What was measured:
[1] = tested on: Staphylococcus epidermidis; assay: Antibacterial activity against Staphylococcus epidermidis ATCC 12228 assessed as inhibition of bacterial growth incubated for 24 hrs by microbroth dilution method; assay type: functional
Bacillus subtilis = assay: Antibacterial activity against Bacillus subtilis CMCC63501 assessed as inhibition of bacterial growth incubated for 24 hrs by microbroth dilution method; assay type: functional
[2] = tested on: Staphylococcus epidermidis; assay: Antibacterial activity against Staphylococcus epidermidis CMCC26069 assessed as inhibition of bacterial growth incubated for 24 hrs by microbroth dilution method; assay type: functional
Enterococcus faecalis = assay: Antibacterial activity against Enterococcus faecalis ATCC 29212 assessed as inhibition of bacterial growth incubated for 24 hrs by microbroth dilution method; assay type: functional
Staphylococcus aureus [3] = assay: Antibacterial activity against methicillin resistant Staphylococcus aureus N315 assessed as inhibition of bacterial growth incubated for 24 hrs by microbroth dilution method; assay type: functional
[4] = Hemolytic activity in rabbit RBC incubated for 1 hr by microplate reader analysis; assay type: toxicity, cell-based, Oryctolagus cuniculus, Erythrocyte; conditions: rabbit red blood cells (erythrocytes)
Staphylococcus aureus [5] = assay: Antibacterial activity against Staphylococcus aureus ATCC 29213 assessed as inhibition of bacterial growth incubated for 24 hrs by microbroth dilution method; assay type: functional
Staphylococcus aureus [6] = assay: Antibacterial activity against methicillin resistant Staphylococcus aureus NCTC10442 assessed as inhibition of bacterial growth incubated for 24 hrs by microbroth dilution method; assay type: functional
Staphylococcus aureus [7] = assay: Antibacterial activity against Staphylococcus aureus ATCC 15981 assessed as inhibition of bacterial growth incubated for 24 hrs by microbroth dilution method; assay type: functional
Staphylococcus aureus [8] = assay: Induction of resistant development in Staphylococcus aureus ATCC 29213 assessed as fold increase in MIC at 0.5 MIC after 12 passages by resistant development assay; assay type: functional

Row | SMILES | MIC [1] [µg/mL] | MIC (Bacillus subtilis) [µg/mL] | MIC [2] [µg/mL] | MIC (Enterococcus faecalis) [µg/mL] | MIC (Staphylococcus aureus [3]) [µg/mL] | HC50 at 1 h [4] [µg/mL] | MIC (Staphylococcus aureus [5]) [µg/mL] | MIC (Staphylococcus aureus [6]) [µg/mL] | MIC (Staphylococcus aureus [7]) [µg/mL] | fold change (FC) (Staphylococcus aureus [8])
1 | COC(=O)[C@H](CCCNC(=N)N)NC(=O)[C@H](CCCNC(=N)N)NC(=O)COc1c(Sc2cc(C)cc(C(C)(C)C)c2OCC(=O)N[C@@H](CCCNC(=N)N)C(=O)N[C@@H](CCCNC(=N)N)C(=O)OC)cc(C)cc1C(C)(C)C | 0.78 (≈ 0.692 µM) | 0.78 (≈ 0.692 µM) | 0.78 (≈ 0.692 µM) | 25 (≈ 22.2 µM) | 1.56 (≈ 1.38 µM) | > 200 | 1.56 (≈ 1.38 µM) | 1.56 (≈ 1.38 µM) | 1.56 (≈ 1.38 µM) | 
2 | COC(=O)[C@H](CCCNC(=N)N)NC(=O)COc1ccc(C(C)(C)CC(C)(C)C)cc1Sc1cc(C(C)(C)CC(C)(C)C)ccc1O |  |  |  |  | 3.12 (≈ 4.66 µM) | 130 | 12.5 (≈ 18.6 µM) | 1.56 (≈ 2.33 µM) |  | 
3 | CC(C)(C)CC(C)(C)c1ccc(OCCCCN2CCSCC2)c(Sc2cc(C(C)(C)CC(C)(C)C)ccc2OCCCCN2CCSCC2)c1 |  |  |  |  | > 50 | > 200 | > 50 | > 50 |  | 
4 | COC(=O)[C@H](CCCNC(=N)N)NC(=O)COc1c(Sc2cc(C)cc(C(C)(C)C)c2OCC(=O)N[C@@H](CCCNC(=N)N)C(=O)OC)cc(C)cc1C(C)(C)C | 0.78 (≈ 0.957 µM) | 1.56 (≈ 1.91 µM) | 0.78 (≈ 0.957 µM) | 12.5 (≈ 15.3 µM) | 1.56 (≈ 1.91 µM) | > 200 | 3.12 (≈ 3.83 µM) | 3.12 (≈ 3.83 µM) | 1.56 (≈ 1.91 µM) | 
5 | CCCCCCNCCCCOc1ccc(C(C)(C)CC(C)(C)C)cc1Sc1cc(C(C)(C)CC(C)(C)C)ccc1OCCCCNCCCCCC |  |  |  |  | > 50 | > 200 | > 50 | > 50 |  | 
6 | CCOC(=O)COc1ccc(C(C)(C)CC(C)(C)C)cc1Sc1cc(C(C)(C)CC(C)(C)C)ccc1OCC(=O)OCC |  |  |  |  | > 50 | > 200 | > 50 | > 50 |  | 
7 | CC(C)(C)CC(C)(C)c1ccc(O)c(Sc2cc(C(C)(C)CC(C)(C)C)ccc2O)c1 |  |  |  |  | > 50 | > 200 | > 50 | > 50 |  | 
8 | CC(C)(C)CC(C)(C)c1ccc(OCCCCN2CCCCC2)c(Sc2cc(C(C)(C)CC(C)(C)C)ccc2OCCCCN2CCCCC2)c1 |  |  |  |  | 12.5 (≈ 17.3 µM) | > 200 | 12.5 (≈ 17.3 µM) | 25 (≈ 34.7 µM) |  | 
9 | CCOC(=O)COc1ccc(C(C)(C)CC(C)(C)C)cc1Sc1cc(C(C)(C)CC(C)(C)C)ccc1O |  |  |  |  | > 50 | > 200 | > 50 | > 50 |  | 
10 | CC(C)(C)CC(C)(C)c1ccc(OCCCCBr)c(Sc2cc(C(C)(C)CC(C)(C)C)ccc2OCCCCBr)c1 |  |  |  |  | > 50 | > 200 | > 50 | > 50 |  | 
11 | COC(=O)[C@H](CCCNC(=N)N)NC(=O)[C@H](CCCNC(=N)N)NC(=O)[C@H](CCCNC(=N)N)NC(=O)COc1ccc(C(C)(C)CC(C)(C)C)cc1Sc1cc(C(C)(C)CC(C)(C)C)ccc1OCC(=O)N[C@@H](CCCNC(=N)N)C(=O)N[C@@H](CCCNC(=N)N)C(=O)N[C@@H](CCCNC(=N)N)C(=O)OC |  |  |  |  | 6.25 (≈ 4.1 µM) | > 200 | 6.25 (≈ 4.1 µM) | 3.12 (≈ 2.05 µM) |  | 
12 | CC(C)(C)CC(C)(C)c1ccc(OCC(=O)N[C@@H](CCCNC(=N)N)C(N)=O)c(Sc2cc(C(C)(C)CC(C)(C)C)ccc2OCC(=O)N[C@@H](CCCNC(=N)N)C(N)=O)c1 |  |  |  |  | 1.56 (≈ 1.79 µM) | 183 | 3.12 (≈ 3.6 µM) | 3.12 (≈ 3.6 µM) |  | 
13 | CCCN(CCC)CCCCOc1ccc(C(C)(C)CC(C)(C)C)cc1Sc1cc(C(C)(C)CC(C)(C)C)ccc1OCCCCN(CCC)CCC |  |  |  |  | > 50 | > 200 | > 50 | > 50 |  | 
14 | COC(=O)[C@H](CCCCN)NC(=O)COc1ccc(C(C)(C)CC(C)(C)C)cc1Sc1cc(C(C)(C)CC(C)(C)C)ccc1OCC(=O)N[C@@H](CCCCN)C(=O)OC |  |  |  |  | 1.56 (≈ 1.85 µM) | 162 | 3.12 (≈ 3.71 µM) | 3.12 (≈ 3.71 µM) |  | 
15 | CC(C)(C)CC(C)(C)c1ccc(OCC(=O)N[C@@H](CCCNC(=N)N)C(=O)N[C@@H](CCCNC(=N)N)C(N)=O)c(Sc2cc(C(C)(C)CC(C)(C)C)ccc2OCC(=O)N[C@@H](CCCNC(=N)N)C(=O)N[C@@H](CCCNC(=N)N)C(N)=O)c1 |  |  |  |  | 6.25 (≈ 5.29 µM) | > 200 | 6.25 (≈ 5.29 µM) | 6.25 (≈ 5.29 µM) |  | 
16 | CCn1cc(C(=O)O)c(=O)c2cc(F)c(N3CCNCC3)cc21 |  |  |  |  |  |  |  |  |  | 32
17 | CCCCN(CCCC)CCCCOc1ccc(C(C)(C)CC(C)(C)C)cc1Sc1cc(C(C)(C)CC(C)(C)C)ccc1OCCCCN(CCCC)CCCC |  |  |  |  | > 50 | > 200 | > 50 | > 50 |  | 
18 | CCCCNCCCCOc1ccc(C(C)(C)CC(C)(C)C)cc1Sc1cc(C(C)(C)CC(C)(C)C)ccc1OCCCCNCCCC |  |  |  |  | 6.25 (≈ 8.96 µM) | 41.5 | 6.25 (≈ 8.96 µM) | 6.25 (≈ 8.96 µM) |  | 
19 | Oc1ccc(Cl)cc1Sc1cc(Cl)ccc1O [FENTICLOR] |  |  |  |  | > 50 | > 200 | > 50 | > 50 |  | 
20 | COC(=O)[C@H](CCCNC(=N)N)NC(=O)[C@H](CCCNC(=N)N)NC(=O)COc1ccc(C(C)(C)CC(C)(C)C)cc1Sc1cc(C(C)(C)CC(C)(C)C)ccc1OCC(=O)N[C@@H](CCCNC(=N)N)C(=O)N[C@@H](CCCNC(=N)N)C(=O)OC | 1.56 (≈ 1.29 µM) | 1.56 (≈ 1.29 µM) | 1.56 (≈ 1.29 µM) | 3.12 (≈ 2.58 µM) | 1.56 (≈ 1.29 µM) | > 200 | 1.56 (≈ 1.29 µM) | 3.12 (≈ 2.58 µM) | 3.12 (≈ 2.58 µM) | 
21 | Cc1cc(Sc2cc(C)cc(C(C)(C)C)c2O)c(O)c(C(C)(C)C)c1 |  |  |  |  | > 50 | > 200 | > 50 | > 50 |  | 
22 | COC(=O)[C@H](CCCNC(=N)N)NC(=O)COc1ccc(Cl)cc1Sc1cc(Cl)ccc1OCC(=O)N[C@@H](CCCNC(=N)N)C(=O)OC |  |  |  |  | 12.5 (≈ 16.8 µM) | > 200 | 25 (≈ 33.6 µM) | 12.5 (≈ 16.8 µM) |  | 
23 | CCN(CC)CCCCOc1ccc(C(C)(C)CC(C)(C)C)cc1Sc1cc(C(C)(C)CC(C)(C)C)ccc1OCCCCN(CC)CC |  |  |  |  | 1.56 (≈ 2.24 µM) | 67.9 | 3.12 (≈ 4.48 µM) | 3.12 (≈ 4.48 µM) |  | 
24 | CC(C)(C)CC(C)(C)c1ccc(O)c(Sc2cc(C(C)(C)CC(C)(C)C)ccc2OCC(=O)N[C@@H](CCCNC(=N)N)C(N)=O)c1 |  |  |  |  | 12.5 (≈ 19.1 µM) | > 200 | 12.5 (≈ 19.1 µM) | 12.5 (≈ 19.1 µM) |  | 
25 | CCNCCCCOc1ccc(C(C)(C)CC(C)(C)C)cc1Sc1cc(C(C)(C)CC(C)(C)C)ccc1OCCCCNCC |  |  |  |  | 1.56 (≈ 2.43 µM) | 30.8 | 1.56 (≈ 2.43 µM) | 1.56 (≈ 2.43 µM) |  | 
26 | CN1CCN(CCCCOc2ccc(C(C)(C)CC(C)(C)C)cc2Sc2cc(C(C)(C)CC(C)(C)C)ccc2OCCCCN2CCN(C)CC2)CC1 |  |  |  |  | 12.5 (≈ 16.6 µM) | > 200 | 12.5 (≈ 16.6 µM) | 12.5 (≈ 16.6 µM) |  | 
27 | Cc1cc(Sc2cc(C)cc(C(C)(C)C)c2OCC(=O)N[C@@H](CCCNC(=N)N)C(N)=O)c(OCC(=O)N[C@@H](CCCNC(=N)N)C(N)=O)c(C(C)(C)C)c1 |  |  |  |  | 12.5 (≈ 15.9 µM) | > 200 | 25 (≈ 31.8 µM) | 12.5 (≈ 15.9 µM) |  | 
28 | CN(C)CCCCOc1ccc(C(C)(C)CC(C)(C)C)cc1Sc1cc(C(C)(C)CC(C)(C)C)ccc1OCCCCN(C)C |  |  |  |  | 1.56 (≈ 2.43 µM) | 23.2 | 1.56 (≈ 2.43 µM) | 1.56 (≈ 2.43 µM) |  | 
29 | CC(C)(C)CC(C)(C)c1ccc(OCCCCNC(=N)N)c(Sc2cc(C(C)(C)CC(C)(C)C)ccc2OCCCCNC(=N)N)c1 |  |  |  |  | 3.12 (≈ 4.67 µM) | > 200 | 3.12 (≈ 4.67 µM) | 3.12 (≈ 4.67 µM) |  | 
